Results from US6762181B1, “Aminomethylpyrrolidine derivatives having aromatic substituents” (Daiichi Pharmaceutical Co., Ltd., priority 1999, dated 2004).
In brackets after ≈: the same amount, converted by molar mass. Read-outs that look alike come from different tables or passages of the source.

What was measured:
Test in all cases: Antibacterial activity (MIC), Japan Society of Chemotherapy standard method
Type in all cases: cell-based
[1] = system: Ser. marcescens 10100
Protocol: (§1) Antibacterial activities of the compounds of the invention were measured in accordance with the standard method specified by the Japan Society of Chemotherapy, with the results shown in the following table as MIC values (μg/ml). In this connection, MIC values of levofloxacin (LVFX), ciprofloxacin (CPFX) and 5-amino-7-[3-(R)-[1-(S)-aminoethyl]pyrrolidin-1-yl]-6-fluoro-1-[2-(S)-fluoro-1-(R)-cyclopropyl]-8-methyl-1,4-dihydro-4-oxoquinoline-3-carboxylic acid (control drug 1) described in WO 9623782 are also shown for the sake of comparison with the MIC values of the compounds of the invention.

[2] = system: S. aureus 870307
Protocol: as §1

[3] = system: Ps. aeruginosa 32104
Protocol: as §1

[4] = system: K. pneumoniae TYPE 1
Protocol: as §1

[5] = system: E. faecalis ATCC 19433
Protocol: as §1

[6] = system: E. coli NIHJ
Protocol: as §1

[7] = system: X. maltophilia IID 1275
Protocol: as §1

[8] = system: S. aureus FDA 209P
Protocol: as §1

[9] = system: Str. pyrogenes G-36
Protocol: as §1

[10] = system: Ps. aeruginosa 32121
Protocol: as §1

[11] = system: Str. pneumoniae J24
Protocol: as §1

[12] = system: Pr. Vulgaris O8601
Protocol: as §1

[13] = system: S. flexneri 2A 5503
Protocol: as §1

[14] = system: S. epidermidis 56500
Protocol: as §1

[15] = Serratia marcescens, 10100, Ser. marcescens 10100, read-out: MIC
[16] = Pseudomonas aeruginosa, 32104, Ps. aeruginosa 32104, read-out: MIC
[17] = Klebsiella pneumoniae, TYPE1, K. pneumoniae TYPE 1, read-out: MIC
[18] = Stenotrophomonas maltophilia, IID1275, X. maltophilia IID 1275, read-out: MIC
[19] = Staphylococcus aureus, FDA209P, read-out: MIC
[20] = Pseudomonas aeruginosa, 32121, Ps. aeruginosa 32121, read-out: MIC
[21] = Streptococcus pneumoniae, J24, Str. pneumoniae J24, read-out: MIC
[22] = Staphylococcus epidermidis, read-out: MIC
[23] = Escherichia coli, read-out: MIC
[24] = Shigella flexneri, 2A5503, S. flexneri 2A 5503, read-out: MIC

## Nc1c(F)c(N2CC[C@@H](C(N)c3ccccc3)C2)c(F)c2c1c(=O)c(C(=O)O)cn2[C@@H]1C[C@@H]1F (single isomer, unassigned) [Example 2]
[1]; Ser. marcescens 10100
  MIC: 0.05 µg/mL (≈ 0.106 µM)
[2]; S. aureus 870307
  MIC: ≦0.003 μg/ml
[3]; Ps. aeruginosa 32104
  MIC: 0.1 µg/mL (≈ 0.212 µM)
[4]; K. pneumoniae TYPE 1
  MIC: 0.013 µg/mL (≈ 0.0275 µM)
[5]; E. faecalis ATCC 19433
  MIC: 0.006 µg/mL (≈ 0.0127 µM)
[6]
  MIC: ≦0.003 μg/ml
[7]; X. maltophilia IID 1275
  MIC: 0.025 µg/mL (≈ 0.0529 µM)
[8]
  MIC: ≦0.003 μg/ml
[9]
  MIC: ≦0.003 μg/ml
[10]; Ps. aeruginosa 32121
  MIC: 0.025 µg/mL (≈ 0.0529 µM)
[11]; Str. pneumoniae J24
  MIC: ≦0.003 μg/ml
[12]
  MIC: 0.025 µg/mL (≈ 0.0529 µM)
[13]; S. flexneri 2A 5503
  MIC: ≦0.003 μg/ml
[14]
  MIC: ≦0.003 μg/ml

## COc1ccccc1C(N)[C@@H]1CCN(c2c(F)c(N)c3c(=O)c(C(=O)O)cn([C@@H]4C[C@@H]4F)c3c2F)C1 (stereo partly drawn) [Example 8, 5-Amino-7-[3-(R)-(1-Amino-1-(2-Methoxy) Phenylmethyl)-1-Pyrrolidinyl]-6,8-Difluoro-1-[2-(S)-Fluoro-1-(R)-Cyclopropyl]-1,4-Dihydro-4-Oxoquinoline-3-Carboxylic Acid]
[1]; Ser. marcescens 10100
  MIC: 0.2 µg/mL (≈ 0.398 µM)
[2]; S. aureus 870307
  MIC: 0.013 µg/mL (≈ 0.0259 µM)
[3]; Ps. aeruginosa 32104
  MIC: 0.2 µg/mL (≈ 0.398 µM)
[4]; K. pneumoniae TYPE 1
  MIC: 0.05 µg/mL (≈ 0.0995 µM)
[5]; E. faecalis ATCC 19433
  MIC: 0.025 µg/mL (≈ 0.0498 µM)
[6]
  MIC: ≦0.003 μg/ml
[7]; X. maltophilia IID 1275
  MIC: 0.2 µg/mL (≈ 0.398 µM)
[8]
  MIC: ≦0.003 μg/ml
[9]
  MIC: ≦0.003 μg/ml
[10]; Ps. aeruginosa 32121
  MIC: 0.1 µg/mL (≈ 0.199 µM)
[11]; Str. pneumoniae J24
  MIC: ≦0.003 μg/ml
[12]
  MIC: 0.2 µg/mL (≈ 0.398 µM)
[13]; S. flexneri 2A 5503
  MIC: 0.006 µg/mL (≈ 0.0119 µM)
[14]
  MIC: ≦0.003 μg/ml

## Nc1c(F)c(N2CC[C@@H](C(N)c3ccco3)C2)c(F)c2c1c(=O)c(C(=O)O)cn2[C@@H]1C[C@@H]1F (stereo partly drawn) [Example 11, 5-Amino-7-{3-(R)-[1-amino-1-(2-furyl)methyl]-1-pyrrolidinyl}-6,8-difluoro-1-[2-(S)-fluoro-1-(R)-cyclopropyl]-1,4-dihydro-4-oxoquinoline-3-carboxylic acid]
[1]; [15]
  MIC: 0.05 µg/mL (≈ 0.108 µM)
[2]; S. aureus 870307
  MIC: 0.025 µg/mL (≈ 0.0541 µM)
[3]; [16]
  MIC: 0.2 µg/mL (≈ 0.432 µM)
[4]; [17]
  MIC: 0.025 µg/mL (≈ 0.0541 µM)
[5]; E. faecalis ATCC 19433
  MIC: 0.025 µg/mL (≈ 0.0541 µM)
[6]
  MIC: ≦0.003 μg/ml
[7]; [18]
  MIC: 0.05 µg/mL (≈ 0.108 µM)
[8]; [19]
  MIC: ≤ 0.003 µg/mL
[9]
  MIC: 0.013 µg/mL (≈ 0.0281 µM)
[10]; [20]
  MIC: 0.05 µg/mL (≈ 0.108 µM)
[11]; [21]
  MIC: 0.006 µg/mL (≈ 0.013 µM)
[12]
  MIC: 0.05 µg/mL (≈ 0.108 µM)
[13]; S. flexneri 2A 5503
  MIC: ≦0.003 μg/ml
[14]; [22]
  MIC: ≤ 0.003 µg/mL

## Nc1c(F)c(N2CC[C@@H](C(N)c3ccc(F)cc3F)C2)c(F)c2c1c(=O)c(C(=O)O)cn2[C@@H]1C[C@@H]1F (stereo partly drawn) [Example 10, 5-Amino-7-[3-(R)-(1Amino-1-(2,4-Difluoro) Phenylmethyl)-1-Pyrrolidinyl]-6,8-Difluoro-1-[2-(S)-Fluoro-1-(R)-Cyclopropyl]-1,4-Dihydro-4-Oxoquinoline-3-Carboxylic Acid]
[1]; Ser. marcescens 10100
  MIC: 0.1 µg/mL (≈ 0.197 µM)
[2]; S. aureus 870307
  MIC: 0.006 µg/mL (≈ 0.0118 µM)
[3]; Ps. aeruginosa 32104
  MIC: 0.2 µg/mL (≈ 0.393 µM)
[4]; K. pneumoniae TYPE 1
  MIC: 0.013 µg/mL (≈ 0.0256 µM)
[5]; E. faecalis ATCC 19433
  MIC: 0.025 µg/mL (≈ 0.0492 µM)
[6]
  MIC: ≦0.003 μg/ml
[7]; X. maltophilia IID 1275
  MIC: 0.05 µg/mL (≈ 0.0983 µM)
[8]
  MIC: ≦0.003 μg/ml
[9]
  MIC: ≦0.003 μg/ml
[10]; Ps. aeruginosa 32121
  MIC: 0.1 µg/mL (≈ 0.197 µM)
[11]; Str. pneumoniae J24
  MIC: ≦0.003 μg/ml
[12]
  MIC: 0.1 µg/mL (≈ 0.197 µM)
[13]; S. flexneri 2A 5503
  MIC: ≦0.003 μg/ml
[14]
  MIC: ≦0.003 μg/ml

## Nc1c(F)c(N2CC[C@@H](C(N)c3ccco3)C2)c(F)c2c1c(=O)c(C(=O)O)cn2[C@@H]1C[C@@H]1F (stereo partly drawn) [Example 12, 5-Amino-7-{3-(R)-[1-amino-1-(2-furyl)methyl]-1-pyrrolidinyl}-6,8-difluoro-1-[2-(S)-fluoro-1-(R)-cyclopropyl]-1,4-dihydro-4-oxoquinoline-3-carboxylic acid]
[1]; Ser. marcescens 10100
  MIC: 0.025 µg/mL (≈ 0.0541 µM)
[2]; S. aureus 870307
  MIC: ≦0.003 μg/ml
[3]; Ps. aeruginosa 32104
  MIC: 0.1 µg/mL (≈ 0.216 µM)
[4]; K. pneumoniae TYPE 1
  MIC: 0.025 µg/mL (≈ 0.0541 µM)
[5]; E. faecalis ATCC 19433
  MIC: 0.006 µg/mL (≈ 0.013 µM)
[6]; [23]
  MIC: ≤ 0.003 µg/mL
[7]; X. maltophilia IID 1275
  MIC: 0.05 µg/mL (≈ 0.108 µM)
[8]
  MIC: ≦0.003 μg/ml
[9]
  MIC: ≦0.003 μg/ml
[10]; Ps. aeruginosa 32121
  MIC: 0.05 µg/mL (≈ 0.108 µM)
[11]; Str. pneumoniae J24
  MIC: ≦0.003 μg/ml
[12]
  MIC: 0.013 µg/mL (≈ 0.0281 µM)
[13]; [24]
  MIC: ≤ 0.003 µg/mL
[14]
  MIC: ≦0.003 μg/ml

## Nc1c(F)c(N2CC[C@@H](C(N)c3cccnc3)C2)c(F)c2c1c(=O)c(C(=O)O)cn2[C@@H]1C[C@@H]1F (stereo partly drawn) [Example 19, 5-Amino-7-(3-(R)-[1-amino-1-(3-pyridyl)methyl]-1-pyrrolidinyl]-6,8-difluoro-1-[(1R, 2S)-2-fluorocyclopropyl]-1,4-dihydro-4-oxoquinoline-3-carboxylic acid]
[1]; [15]
  MIC: 0.1 µg/mL (≈ 0.211 µM)
[2]; Staphylococcus aureus, 870307, S. aureus 870307, read-out: MIC
  MIC: 0.025 µg/mL (≈ 0.0528 µM)
[3]; [16]
  MIC: 0.2 µg/mL (≈ 0.422 µM)
[4]; [17]
  MIC: 0.025 µg/mL (≈ 0.0528 µM)
[5]; Enterococcus faecalis, ATCC19433, E. faecalis ATCC 19433, read-out: MIC
  MIC: 0.025 µg/mL (≈ 0.0528 µM)
[6]; [23]
  MIC: ≤ 0.003 µg/mL
[7]; [18]
  MIC: 0.1 µg/mL (≈ 0.211 µM)
[8]; [19]
  MIC: ≤ 0.003 µg/mL
[9]; read-out: MIC
  MIC: ≤ 0.003 µg/mL
[10]; [20]
  MIC: 0.05 µg/mL (≈ 0.106 µM)
[11]; [21]
  MIC: ≤ 0.003 µg/mL
[12]; Proteus vulgaris, read-out: MIC
  MIC: 0.025 µg/mL (≈ 0.0528 µM)
[13]; [24]
  MIC: ≤ 0.003 µg/mL
[14]; [22]
  MIC: ≤ 0.003 µg/mL
